For one data set, the system named is HDAC. In words: HDAC fluorimetric assay kit (AK-500, Biomol), HeLa nuclear extract. It counts as biochemical. The method, then:
HDAC inhibitors were screened using an HDAC fluorimetric assay kit (AK-500, Biomol, Plymouth Meeting, Pa.). […] Each assay was setup as follows: Defrosted all kit components and kept on ice until use. […] Prepared dilutions of Trichostatin A (TSA, positive control) and tested compounds in assay buffer (5× of final concentration). Diluted Fluor de Lys™ Substrate in assay buffer to 100 uM (50 fold=2× final). Diluted Fluor de Lys™ developer concentrate 20-fold (e.g. 50 μl plus 950 μl Assay Buffer) in cold assay buffer. Second, diluted the 0.2 mM Trichostatin A 100-fold in the 1× Developer (e.g. 10 μl in 1 ml; final Trichostatin A concentration in the 1× Developer=2 μM; final concentration after addition to HDAC/Substrate reaction=1 μM). Added Assay buffer, diluted trichostatin A or test inhibitor to appropriate wells of the microtiter plate. Added diluted HeLa extract or other HDAC sample to all wells except for negative controls.

Another data set concerns the target human HER2/ErbB2 (Homo sapiens, UniProt P04626). In words: HTScan Receptor Kinase Assay, HER2/ErbB2.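 Also: europium time-resolved fluorescence detection of anti-phosphotyrosine antibody binding to biotinylated FLT3 (Tyr589) peptide phosphorylated by the kinase, 30 min reaction at room temperature.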
The next data set has as its target T1, human EGFR (Homo sapiens, UniProt P00533).
T1 construct: human EGFR (His672-Ala1210); GST (N); purchased Cell Signaling Technologies; host or cells: baculovirus expression system
Put plainly: HTScan Receptor Kinase Assay, EGFR. It counts as biochemical.

The target in another data set is human VEGFR2 (Homo sapiens, UniProt P35968). Put plainly: HTScan Receptor Kinase Assay, VEGFR2.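 Also: recombinant GST-His-tagged human VEGFR2 kinase domain phosphorylating biotinylated gastrin precursor peptide, 30 min at room temperature, phosphotyrosine detected by Europium-labelled antibody time-resolved fluorescence.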
Sequence of human VEGFR2 (P35968 807-1356 limits assumed): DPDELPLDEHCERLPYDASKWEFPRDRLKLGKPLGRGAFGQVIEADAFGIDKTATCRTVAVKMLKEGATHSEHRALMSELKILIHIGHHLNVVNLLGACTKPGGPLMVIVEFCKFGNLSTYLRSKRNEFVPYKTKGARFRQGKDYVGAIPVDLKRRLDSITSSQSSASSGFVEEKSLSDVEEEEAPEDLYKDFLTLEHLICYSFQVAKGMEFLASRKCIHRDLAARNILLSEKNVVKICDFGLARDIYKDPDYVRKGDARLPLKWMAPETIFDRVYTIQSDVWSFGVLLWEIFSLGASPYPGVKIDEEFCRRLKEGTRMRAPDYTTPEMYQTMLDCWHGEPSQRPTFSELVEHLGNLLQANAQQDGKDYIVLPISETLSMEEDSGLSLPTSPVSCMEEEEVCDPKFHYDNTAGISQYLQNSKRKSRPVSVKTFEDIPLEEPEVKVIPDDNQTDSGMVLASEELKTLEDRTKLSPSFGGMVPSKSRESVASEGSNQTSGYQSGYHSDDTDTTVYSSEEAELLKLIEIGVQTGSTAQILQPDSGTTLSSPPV

pIC50: −log10 of the molar value.

Sequence of human HER2/ErbB2 (P04626 676-1255): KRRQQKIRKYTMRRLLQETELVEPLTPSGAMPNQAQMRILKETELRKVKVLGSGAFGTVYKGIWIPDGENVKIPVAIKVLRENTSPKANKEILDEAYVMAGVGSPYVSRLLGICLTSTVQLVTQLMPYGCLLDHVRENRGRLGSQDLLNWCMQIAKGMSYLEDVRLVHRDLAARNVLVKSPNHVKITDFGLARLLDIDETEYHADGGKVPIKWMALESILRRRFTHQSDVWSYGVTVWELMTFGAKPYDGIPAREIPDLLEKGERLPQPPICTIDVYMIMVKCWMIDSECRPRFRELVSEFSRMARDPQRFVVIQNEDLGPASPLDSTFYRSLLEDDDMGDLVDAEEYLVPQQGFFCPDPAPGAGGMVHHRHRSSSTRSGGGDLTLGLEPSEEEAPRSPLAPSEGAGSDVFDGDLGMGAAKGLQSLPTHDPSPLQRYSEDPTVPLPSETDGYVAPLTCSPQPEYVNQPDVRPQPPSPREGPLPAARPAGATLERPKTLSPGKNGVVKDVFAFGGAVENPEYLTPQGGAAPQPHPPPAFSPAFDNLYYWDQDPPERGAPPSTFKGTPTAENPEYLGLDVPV
T1 sequence (P00533 672-1210): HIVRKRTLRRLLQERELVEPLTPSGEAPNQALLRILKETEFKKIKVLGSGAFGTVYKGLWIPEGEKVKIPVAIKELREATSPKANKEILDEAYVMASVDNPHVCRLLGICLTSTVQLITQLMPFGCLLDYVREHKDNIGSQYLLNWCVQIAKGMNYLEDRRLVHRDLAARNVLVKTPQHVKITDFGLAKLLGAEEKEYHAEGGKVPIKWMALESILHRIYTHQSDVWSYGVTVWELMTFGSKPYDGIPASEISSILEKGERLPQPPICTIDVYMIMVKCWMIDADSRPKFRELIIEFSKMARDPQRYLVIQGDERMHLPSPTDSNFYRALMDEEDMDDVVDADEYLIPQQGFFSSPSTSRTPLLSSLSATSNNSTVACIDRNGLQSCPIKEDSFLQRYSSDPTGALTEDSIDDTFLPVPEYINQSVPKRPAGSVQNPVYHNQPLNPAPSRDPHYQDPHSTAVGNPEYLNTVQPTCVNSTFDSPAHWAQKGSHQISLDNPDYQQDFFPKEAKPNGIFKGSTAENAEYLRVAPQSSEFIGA
Experimental for human HER2/ErbB2: (§1) The ability of compounds to inhibit receptor kinase (EGFR, HER2/ErbB2, and VEGFR2) activity was assayed using HTScan™ Receptor Kinase Assay Kits (Cell Signaling Technologies, Danvers, Mass.). […] VEGFR2 tyrosine kinase was produced using a baculovirus expression system from a construct containing a human VEGFR2 cDNA kinase domain (Asp805-Val1356) (GenBank accession No. AF035121) fragment amino-terminally fused to a GST-HIS6-Thrombin cleavage site. The proteins were purified by one-step affinity chromatography using glutathione-agarose. An anti-phosphotyrosine monoclonal antibody, P-Tyr-100, was used to detect phosphorylation of biotinylated substrate peptides (EGFR, Biotin-PTP1B (Tyr66); HER2/ErbB2, Biotinylated FLT3 (Tyr589); VEGFR2, Biotin-Gastrin Precursor (Tyr87).). […] Fluorescence was measured on a WALLAC Victor 2 plate reader and reported as relative fluorescence units (RFU). Data were plotted using GraphPad Prism (v4.0a) and IC50's calculated using a sigmoidal dose response curve fitting algorithm.
(§2) Each assay was setup as follows: Added 100 μl of 10 mM ATP to 1.25 ml 6 mM substrate peptide. Diluted the mixture with dH20 to 2.5 ml to make 2×ATP/substrate cocktail ([ATP]=400 mM, [substrate]=3 mM). Immediately transfer enzyme from −80° C. to ice. Allowed enzyme to thaw on ice. Microcentrifuged briefly at 4° C. to bring liquid to the bottom of the vial. Returned immediately to ice. […] Transfer 1.25 ml of DTT/Kinase buffer to enzyme tube to make 4× reaction cocktail ([enzyme]=4 ng/μL in 4× reaction cocktail). […] Incubated reaction plate at room temperature for 30 minutes. Added 50 μl/well Stop Buffer (50 mM EDTA, pH 8) to stop the reaction. Transferred 25 μl of each reaction and 75 μl dH2O/well to a 96-well streptavidin-coated plate and incubated at room temperature for 60 minutes. Washed three times with 200 μl/well PBS/T (PBS, 0.05% Tween-20). […] Added 100 μl/well primary antibody. Incubated at room temperature for 60 minutes. Washed three times with 200 μl/well PBS/T. Diluted Europium labeled anti-mouse IgG 1:500 in PBS/T with 1% BSA. Added 100 μl/well diluted antibody. Incubated at room temperature for 30 minutes. Washed five times with 200 μl/well PBS/T. Added 100 μl/well DELFIA® Enhancement Solution. Incubated at room temperature for 5 minutes.
Experimental for human VEGFR2: as §1, §2

`C[C@@H](Nc1ncnc2[nH]c(-c3ccc(OCC(=O)NO)cc3)cc12)c1ccccc1` [Compound 17, (R)—N-hydroxy-2-(4-(4-(1-phenylethylamino)-7H-pyrrolo[2,3-d]pyrimidin-6-yl)phenoxy)acetamide]: the melting point fell in the range of 116.8 to 126.8 °C. For the same compound, the pIC50 with HDAC was over 7.00. The same compound showed a negative-log IC50 (pIC50) against human HER2/ErbB2 of over 7.00. Also, the pIC50 at human EGFR is over 7.00. This compound also gave a negative-log IC50 (pIC50) on human VEGFR2 of 5.00 to 6.00.

Source of the values: patent US20080161320A1, “FUSED BICYCLIC PYRIMIDINES AS PTK INHIBITORS CONTAINING A ZINC BINDING MOIETY” (priority 2006, published 2008).
